What all share (assay): Minimum inhibitory concentration, agar dilution test (Denley Multipoint inoculator, Isosensitest medium)
What all share (format): cell-based

Experiment [1] relates to E. coli 4418. Particulars: Escherichia coli. The source says: (§1) The MIC values of some of the compounds according to the invention are given in the following table. | Minimum inhibitory concentration mcg/ml^(x) | ^(x) Agar dilution test/Denley Multipoint inoculator Isosensitest | medium
Experiment [2] relates to E. coli 455/7. Particulars: Escherichia coli.
Description: as §1

Experiment [3] relates to E. coli Neum. Particulars: Escherichia coli.
Description: as §1

The subject of experiment [4] is Klebsiella pneum. 63.
Description: as §1

In experiment [5] the test system is Klebsiella pneum. 8085.
Description: as §1

Experiment [6] has as its system Klebsiella spec. 6179.
Description: as §1

For experiment [7], the system named is Proteus vulg. 1017.
Description: as §1

Experiment [8] has as its system Pseudomonas aerug. W.
Description: as §1

In experiment [9] the test system is Staphylococcus aur. 133.
Description: as §1

Experiment [10] concerns Staphylococcus aur. 1756.
Description: as §1

Experiment [11] has as its system Streptococcus faecalis 27101. Particulars: Enterococcus faecalis.
Description: as §1

Values after ≈ are worked out from the molar mass of the structure shown.

By MIC is commonly meant the least concentration at which growth counts as inhibited. High values mean weaker potency, low ones greater potency. Regarding `CN1CCN(c2c(F)cc3c(=O)c(C(=O)O)cn(-c4ccc(F)cc4)c3c2F)CC1` [Example 1, 6,8-Difluoro-1,4-dihydro-4-oxo-1-(4-fluorophenyl)-7-(4-methyl-1-piperazinyl)-quinoline-3-carboxylic acid], the MIC came out at 0.25 µg/mL (≈ 0.599 µM) in [1]; 16 µg/mL (≈ 38.3 µM) in experiment [2]; 0.125 µg/mL (≈ 0.299 µM) in experiment [3]; 0.25 µg/mL (≈ 0.599 µM) in [4]; 0.125 µg/mL (≈ 0.299 µM) in experiment [5]; 0.5 µg/mL (≈ 1.2 µM) in experiment [6]. Besides, the MIC in experiment [7] worked out at 0.5 µg/mL (≈ 1.2 µM); in experiment [8], 8 µg/mL (≈ 19.2 µM); in [9], 0.5 µg/mL (≈ 1.2 µM); in [10], 0.5 µg/mL (≈ 1.2 µM); in [11], 4 µg/mL (≈ 9.58 µM).
Turning to `CCn1cc(C(=O)O)c(=O)c2cc(F)c(N3CCNCC3)cc21` [Norfloxacin, reference compound], the MIC in experiment [1] was 0.125 µg/mL (≈ 0.391 µM); in experiment [2] it was 8 µg/mL (≈ 25.1 µM); in experiment [3] it was 0.125 µg/mL (≈ 0.391 µM); in experiment [4], 0.25 µg/mL (≈ 0.783 µM); in [5] it was 0.25 µg/mL (≈ 0.783 µM); in experiment [6], 2 µg/mL (≈ 6.26 µM). Besides, the minimum inhibitory concentration (MIC) in experiment [7] came to 0.06 µg/mL (≈ 0.188 µM); in [8], 2 µg/mL (≈ 6.26 µM); in [9], 1 µg/mL (≈ 3.13 µM); in experiment [10] it was 1 µg/mL (≈ 3.13 µM); in experiment [11] it was 1 µg/mL (≈ 3.13 µM).
For `CC1CN(c2c(F)cc3c(=O)c(C(=O)O)cn(-c4ccc(F)cc4)c3c2F)CCN1` (centres unmarked) [Example 2, 6,8-Difluoro-1,4-dihydro-4-oxo-1-(4-fluorophenyl)-7-(3-methyl-1-piperazinyl)-quinoline-3-carboxylic acid], the MIC in experiment [1] was 0.125 µg/mL (≈ 0.299 µM); in experiment [2] it was 8 µg/mL (≈ 19.2 µM); in experiment [3], approximately 0.015 µg/mL (≈ 0.0359 µM); in experiment [4] it was 0.125 µg/mL (≈ 0.299 µM); in experiment [5], 0.06 µg/mL (≈ 0.144 µM); in [6], 0.25 µg/mL (≈ 0.599 µM). For the same compound, the MIC in [7] worked out at 0.25 µg/mL (≈ 0.599 µM); in experiment [8] it was 4 µg/mL (≈ 9.58 µM); in [9] it was 0.5 µg/mL (≈ 1.2 µM); in experiment [10], 0.5 µg/mL (≈ 1.2 µM); in experiment [11] it was 4 µg/mL (≈ 9.58 µM).
Turning to `O=C(O)c1cn(-c2ccc(F)cc2)c2c(F)c(N3CCNCC3)c(F)cc2c1=O` [Example 3, 6,8-Difluoro-1,4-dihydro-4-oxo-1-(4-fluorophenyl)-7-(1-piperazinyl)-quinoline-3-carboxylic acid], the MIC in experiment [1] is 0.06 µg/mL (≈ 0.149 µM); in [2] it was 8 µg/mL (≈ 19.8 µM); in [3] it was approximately 0.015 µg/mL (≈ 0.0372 µM); in experiment [4], 0.06 µg/mL (≈ 0.149 µM); in [5], approximately 0.015 µg/mL (≈ 0.0372 µM); in [6] it was 0.06 µg/mL (≈ 0.149 µM). Also, the MIC in experiment [7] stood at 0.03 µg/mL (≈ 0.0744 µM); in experiment [8], 1 µg/mL (≈ 2.48 µM); in experiment [9], 0.25 µg/mL (≈ 0.62 µM); in experiment [10] it was 0.25 µg/mL (≈ 0.62 µM); in experiment [11], 4 µg/mL (≈ 9.92 µM).
